Assay results: the Deep4Chem optical property database
Values joined by “and” are separate entries in the source; they are usually repeats but may differ in a detail not shown here. Equal entries are not always repeated. Each block holds one compound with its values, some of them ahead of it.

Assay: solvent given as SMILES

emission maximum (in O): 663 nm
Structure (SMILES): COc1ccc(C2=C3C=CC(=[N+](C)C)C=C3[Si](C)(C)c3cc(N(C)C)ccc32)c(OC)c1

emission maximum (in ClCCl): 506 nm
Structure (SMILES): Cc1cccc2nc(-c3ccc(-c4cc(=O)cc(-c5ccccc5)o4)cc3)c(NC3CCCCC3)n12

emission maximum (in C1CCOC1): 429 nm
Structure (SMILES): COc1ccc(-n2c(-c3ccc(-c4cncc5ccccc45)cc3)nc3c4ccccc4c4ccccc4c32)cc1

emission maximum (in ClCCl): 500 nm
Structure (SMILES): COc1ccc2c(c1)CCC1=C(C#Cc3cc4ccccc4c4ccccc34)O[B-](F)(F)[O+]=C12

emission maximum (in CC#N): 509 nm
Structure (SMILES): Oc1ccc2ccccc2c1/C=N/c1cc2ccccc2cc1/N=C/c1c(O)ccc2ccccc12

emission maximum (in CO): 580 nm
emission maximum (in OCC(O)CO): 581 nm
emission maximum (in OCCO): 583 nm
emission maximum (in Oc1ccccc1): 581 nm
Structure (SMILES): CN(CCO)c1ccc(/N=N/c2ccc([N+](=O)[O-])cc2)cc1

emission maximum (in ClCCl): 453 nm
Structure (SMILES): C(#Cc1c(C#Cc2cccs2)c(C#Cc2cccs2)c(C#Cc2cccs2)c(C#Cc2cccs2)c1C#Cc1cccs1)c1cccs1

emission maximum (in ClC(Cl)Cl): 501 nm
Structure (SMILES): CCCCCCN1C(=O)c2cccc3cc(/N=C\c4c[nH]c5c4ccc4ccccc45)cc(c23)C1=O

Structure (SMILES): N#CC1=C(c2ccc(-c3cccs3)s2)CCC1
emission maximum (in C1CCOC1): 441 nm
emission maximum (in CC#N): 445 nm
emission maximum (in CCCCCC): 428 nm
emission maximum (in CCO): 443 nm
emission maximum (in OCCOCCO): 455 nm
emission maximum (in c1ccncc1): 450 nm

emission maximum (in CCO): 465 nm
emission maximum (in ClC(Cl)Cl): 453 nm
Structure (SMILES): CCOc1ccc2c(-c3nc(-c4ccccc4F)no3)cc(=O)oc2c1

Structure (SMILES): Cc1ccc2oc(-c3cc4cc(C)ccc4oc3=O)cc2c1
emission maximum (in CC#N): 445 nm
emission maximum (in CCOC(C)=O): 436 nm
emission maximum (in CS(C)=O): 448 nm
emission maximum (in Cc1ccccc1): 436 nm
emission maximum (in O): 498 nm

emission maximum (in C1CCOC1): 407.5 nm
emission maximum (in CC#N): 399.5 nm
emission maximum (in CCCCCC): 399 nm
emission maximum (in CCOC(C)=O): 404.5 nm
emission maximum (in CN(C)C=O): 451 nm
emission maximum (in CO): 403 nm
emission maximum (in CS(C)=O): 401.5 nm
emission maximum (in ClC(Cl)Cl): 412.4 nm
Structure (SMILES): Cc1ccc(NC(=O)c2sc(Br)nc2C)cc1

emission maximum (in C1CCOC1): 487 nm
Structure (SMILES): COc1cc2c(cc1-c1ccsc1)Cc1c3c(c4c(c1-2)-c1cc(OC)c(-c2ccsc2)cc1C4)C(=O)N(CCC(C)C)C3=O

Structure (SMILES): COc1ccc(N(c2ccc(/C=C(\C)c3ccccc3)cc2)c2ccc(/C=C(\C)c3ccccc3)cc2)cc1
emission maximum (in Cc1ccccc1): 435 nm

Structure (SMILES): c1ccc(-c2nc(-c3ccccc3)nc(-c3ccc(-n4c5ccccc5c5cc6c(cc54)C(c4ccccc4)(c4ccccc4)c4ccccc4-6)cc3)n2)cc1
emission maximum (in C1CCOC1): 494.27 nm
emission maximum (in CCCCCC): 400.55 nm
emission maximum (in Cc1ccccc1): 442 nm
emission maximum (in ClCCl): 519.15 nm
emission maximum (in O=P(c1ccccc1)(c1ccccc1)c1ccccc1Oc1ccccc1P(=O)(c1ccccc1)c1ccccc1): 471 nm

emission maximum (in ClC(Cl)Cl): 723 nm
Structure (SMILES): CN1C(=CC2=C([O-])C(=Cc3sc4ccccc4[n+]3C)C2=C(C#N)C#N)Sc2ccccc21

Structure (SMILES): CC1=CC(C)=[N+]2C1=C(c1ccc(C(=O)OC3C[C@@H]4CC[C@]3(C)C4(C)C)cc1)c1c(C)cc(C)n1[B-]2(F)F (stereo not given in full)
emission maximum (in Cc1ccccc1): 518 nm

emission maximum (in C1COCCO1): 540 nm
emission maximum (in CC#N): 650 nm
emission maximum (in ClCCl): 627 nm
Structure (SMILES): CCCCN(CCCC)c1ccc(/C=C/c2ccc3nc(-c4ccccc4)c(/C=C/c4ccc(N(C)C)cc4)nc3c2)cc1

Structure (SMILES): CN(C)c1ccc(/C=C/C=C/c2nc3ccccc3s2)cc1
emission maximum (in C1COCCO1): 516 nm
emission maximum (in CC#N): 562 nm
emission maximum (in CC(C)=O): 557 nm
emission maximum (in CCCCCC): 478 nm
emission maximum (in CCCCO): 531 nm
emission maximum (in CCCO): 533 nm
emission maximum (in CCO): 560 nm
emission maximum (in CN(C)C=O): 567 nm
emission maximum (in CO): 573 nm
emission maximum (in Cc1ccccc1): 500 nm
emission maximum (in ClC(Cl)(Cl)Cl): 499 nm
emission maximum (in ClC(Cl)Cl): 526 nm
emission maximum (in ClCCl): 533 nm
emission maximum (in OCC(O)CO): 583 nm
emission maximum (in OCCO): 583 nm
emission maximum (in c1ccccc1): 504 nm

emission maximum (in C1CCOC1): 528 nm
Structure (SMILES): N#Cc1c(N2CCCCC2)cc(-c2ccc3ccc4cccc5ccc2c3c45)c2c1-c1ccccc1C2=O

emission maximum (in ClCCl): 506 nm
Structure (SMILES): COc1ccc(/C=C/C2=CC(c3ccccc3)=[O+][B-](F)(F)O2)cc1

emission maximum (in ClCCl): 493 nm
Structure (SMILES): CCOC(=O)c1ccc(C2CC(c3cccc4ccccc34)=NN2c2ccc(C)cc2)cc1 (stereo not given)

emission maximum (in C1CCOC1): 469 nm
emission maximum (in CC#N): 469 nm
emission maximum (in CN(C)C=O): 464 nm
emission maximum (in ClCCl): 467 nm
emission maximum (in c1ccccc1): 463 nm
Structure (SMILES): CCN1c2ccc(-c3cc(C(F)(F)F)[nH]n3)cc2Sc2cc(-c3cc(C(F)(F)F)[nH]n3)ccc21

emission maximum (in CC#N): 398 nm
emission maximum (in CCCCOCCCC): 397 nm
emission maximum (in CO): 399 nm
Structure (SMILES): c1ccc(Nc2nc(Nc3ccccc3)nc(Nc3cc4ccc5cccc6ccc(c3)c4c56)n2)cc1

emission maximum (in CC#N): 450 nm
emission maximum (in CCCCCC): 385 nm
Structure (SMILES): CN(c1ccccc1)c1ccc(/C=C/c2ccccc2)cc1

emission maximum (in ClC(Cl)Cl): 488 nm
Structure (SMILES): CC(C)c1cccc(C(C)C)c1-n1c(=O)c2cc3nc(-c4ccccc4)c4cc5c(=O)n(-c6c(C(C)C)cccc6C(C)C)c(=O)c6cc7c(-c8ccccc8)nc8cc(c1=O)c2c1c3c4c(c56)c7c81

emission maximum (in CC#N): 413 nm
Structure (SMILES): CCOC(=O)c1c2c3c(ccc(C)c3c3cc4c(cc13)[Si](C)(C)O[Si]4(C)C)N(C)C2=O

emission maximum (in CO): 773 nm
emission maximum (in O): 771 nm
Structure (SMILES): CC1(C)C(/C=C/C=C/C=C/C=C2/N(CCCCCC(=O)O)c3ccc(S(=O)(=O)[O-])cc3C2(C)C)=[N+](CCCCCC(=O)O)c2ccc(S(=O)(=O)[O-])cc21

emission maximum (in CC#N): 516 nm
emission maximum (in CCCCCC): 524 nm
emission maximum (in CO): 521 nm
emission maximum (in ClC(Cl)Cl): 527 nm
emission maximum (in ClCCl): 522 nm
Structure (SMILES): CC1=CC(C)=[N+]2C1=C(c1ccc3cccnc3n1)c1c(C)cc(C)n1[B-]2(F)F

emission maximum (in C1CCOC1): 446 nm
Structure (SMILES): F[B-]1(F)OC(c2ccccc2)=C(c2ccccc2)c2sc3ccccc3[n+]21

Structure (SMILES): CCn1c2ccccc2c2cc(-c3cc(-c4ccc5c(c4)c4ccccc4n5CC)nc(-c4ccc(OC)cc4)n3)ccc21
emission maximum (in C1CCOC1): 385 nm
emission maximum (in CCOC(C)=O): 384 nm
emission maximum (in CN(C)C=O): 414 nm
emission maximum (in Cc1ccccc1): 379 nm
emission maximum (in ClCCl): 404 nm

emission maximum (in CO): 384 nm
Structure (SMILES): N[C@@H](Cn1nnc2cc(-c3ccc(N4CCOCC4)cc3)ccc21)C(=O)O

emission maximum (in ClCCl): 645 nm
Structure (SMILES): c1ccc(C2=C3C4=C(C5=[N+]3[B-]3(Oc6ccccc65)Oc5ccccc5-c5c6c(c2n53)C2CCC6CC2)C2CCC4CC2)cc1 (stereo not given)

Structure (SMILES): COc1ccc(-c2nc3ccccc3nc2-c2ccc(OC)cc2)cc1
emission maximum (in C1CCOC1): 432 nm
emission maximum (in CC#N): 435 nm
emission maximum (in CCCCCC): 423 nm
emission maximum (in CN(C)C=O): 432 nm
emission maximum (in Cc1ccccc1): 426 nm
emission maximum (in ClC(Cl)Cl): 430 nm

emission maximum (in ClCCl): 503 nm
Structure (SMILES): C[Si]1(C)O[Si](C)(C)c2cc3c(-c4ccc(F)cc4)c4ccccc4nc3cc21

emission maximum (in C1CCOC1): 345 nm
emission maximum (in C1COCCO1): 342 nm
emission maximum (in CC#N): 354 nm
emission maximum (in CC(C)O): 356 nm
emission maximum (in CCO): 358 nm
emission maximum (in CO): 367 nm
emission maximum (in CS(C)=O): 363 nm
emission maximum (in O): 375 nm
emission maximum (in OCC(F)(F)F): 364 nm
Structure (SMILES): N#Cc1ccc2cc[nH]c2c1

emission maximum (in CO): 581 nm
Structure (SMILES): CCN(C)c1ccc(C2=C3C(C)=CC(/C=C/c4ccc(OCC(=O)OC)cc4)=[N+]3[B-](F)(F)n3c(C)cc(C)c32)cc1

Structure (SMILES): CCC1=C(C)C2=C(c3cc(C(=O)Cl)cc(C4=C5C(C)=C(CC)C(C)=[N+]5[B-](F)(F)n5c(C)c(CC)c(C)c54)c3)c3c(C)c(CC)c(C)n3[B-](F)(F)[N+]2=C1C
emission maximum (in C1CCOC1): 549 nm
emission maximum (in CC#N): 548 nm
emission maximum (in CN(C)C=O): 560 nm
emission maximum (in Cc1ccccc1): 562 nm
emission maximum (in ClC(Cl)Cl): 562 nm

emission maximum (in CCO): 644 nm
emission maximum (in ClCCl): 642 nm
emission maximum (in O): 641 nm
Structure (SMILES): CC[N+](CC)=c1ccc2cc3c(oc-2c1)-c1ccc(N(C)C)cc1CC3

emission maximum (in CC#N): 437 nm
emission maximum (in ClCCl): 438 nm
Structure (SMILES): O=c1c2cc(F)ccc2nc2n1[B-](F)(F)[n+]1ccccc1-2

emission maximum (in C1CCCCC1): 516 nm
emission maximum (in CC#N): 514.5 nm
emission maximum (in CCO): 514.5 nm
emission maximum (in CCOC(C)=O): 514.5 nm
emission maximum (in CO): 513.5 nm
emission maximum (in OCC(F)(F)F): 509.5 nm
Structure (SMILES): Cc1ccc(C2=C3C=CC=[N+]3[B-](F)(F)n3cccc32)cc1

emission maximum (in ClCCl): 470 nm
Structure (SMILES): CCCCCCCCOc1cc(/C=C/c2ccncc2)c(OCCCCCCCC)cc1/C=C/c1ccncc1

Structure (SMILES): Nc1ccc2c(C(F)(F)F)cc(=O)oc2c1
emission maximum (in C1CCC2CCCCC2C1): 404 nm
emission maximum (in C1CCCCC1): 401 nm
emission maximum (in C1COCCO1): 442 nm
emission maximum (in CC1CCCCC1): 401 nm
emission maximum (in CC#N): 465 nm and 461 nm
emission maximum (in CC(C)=O): 466 nm
emission maximum (in CC(C)O): 481 nm
emission maximum (in CCC(C)CC): 400 nm
emission maximum (in CCCC(C)C): 399 nm
emission maximum (in CCCCCC): 401 nm
emission maximum (in CCCCCCCCO): 480 nm
emission maximum (in CCCCCCO): 481 nm
emission maximum (in CCCCO): 484 nm
emission maximum (in CCO): 485 nm
emission maximum (in CCOC(C)=O): 456 nm
emission maximum (in CN(C)C=O): 480 nm
emission maximum (in CO): 487 nm
emission maximum (in CS(C)=O): 487 nm

Structure (SMILES): Cc1ccc(C2=C3C=CC(/C=C/c4ccccc4)=[N+]3[B-](F)(F)n3c(/C=C/c4ccccc4)ccc32)cc1
emission maximum (in C1CCCCC1): 642 nm
emission maximum (in C1CCOC1): 645 nm
emission maximum (in C1COCCO1): 646 nm
emission maximum (in CCOC(C)=O): 641 nm
emission maximum (in CO): 639 nm
emission maximum (in Cc1ccccc1): 649 nm
emission maximum (in ClC(Cl)Cl): 647 nm

Structure (SMILES): CC(C)(C)c1ccc2c(c1)sc1[n+]2[B-](F)(F)n2c(c3cccc4cccc2c43)=N1
emission maximum (in C1CCOC1): 504 nm
emission maximum (in CC#N): 502 nm
emission maximum (in CCCCCC): 504 nm
emission maximum (in Cc1ccccc1): 506 nm
emission maximum (in ClCCl): 534 nm

emission maximum (in ClCCl): 389 nm
Structure (SMILES): COc1cc2c(cc1OC)C1=C[C@H](c3ccccc3)C3(C(C#N)=C(C#N)N1CC2)c1cc(Cl)ccc1-c1ccc(Cl)cc13
